{"source": "paper PMC12505902", "about": "“Inhibitors of trehalose-6-phosphate synthase activity in fungal pathogens compromise thermal tolerance pathways” (mBio, 2025)", "assay_in_all_cases": "MIC dose-response assay in YPD", "assay_type_in_all_cases": "cell-based", "key": {"[1]": {"system": "C. gattii (R265)", "conditions": "Cryptococcus gattii", "procedure": "(§1) Fig 4 4456dh inhibits the growth of Candida and Cryptococcus species. Two-fold dose response assays were performed against (A) C. albicans at 42°C and C. auris at 39°C, (B) C. glabrata at 42°C, and (C) C. neoformans, C. deneoformans, and C. gattii at 37°C. 4456dh was administered at the concentrations indicated. Cultures were grown in YPD at the listed temperatures for 48 hours for Candida species and 72 hours for Cryptococcus species. Experimental temperatures reflect the temperatures at which the fungi experience heat stress. Left: relative growth of treated samples was calculated by averaging technical triplicates and normalizing the OD600 of each treated well to the average OD600 of the untreated WT controls, after the absorbance due to the compound was subtracted. The MIC80 values, calculated based on the OD600 values, are indicated in the white text on each heat map. Right: representative spot assays show the ability of cells to grow after exposure to 4456dh and indicate fungicidal activity of 4456dh. TEXT PRINTED IN THE PICTURE: (A) 4456dh: C. albicans 42 °C: 13 mM; C. auris 39 °C: 7 mM | (B) 4456dh: C. glabrata 42 °C: 7.8 μM | (C) 4456dh: C. neoformans 37 °C: 7 mM; C. deneoformans 37 °C: 3 mM; C. gattii 37 °C: 7 mM DOUBTS OF THE COPYIST ABOUT THIS PICTURE: 4456dh, all panels: the picture prints no measure name with the white values on the heat maps, so each value is given only with its organism and temperature\n(§2) We next tested the activity of 4456dh on Cryptococcus species at 37°C.\n(§3) 123 hours. […]\n(§4) 126 medium. Growth was plotted as a heat map using Excel.\n(§5) 127 Wild-t y pe C. neoformans strains H99, wild-type C. deneoformans JEC21 and wild- t y pe C. gattii\n(§6) 128 R265 were cultured overnight in YPD (yeast-peptone- dextrose) medium at 30 °C. Growth of the\n(§7) 129 overnight cultures was quantified by measuring the OD600 and corrected for the background\n(§8) 130 absorbance of the medium. Antifungal potency for 4456dh was assessed by minimum inhibitory\n(§9) 131 concentration (MIC) dose-response assays performed under standard Clinical and Lab Standards\n(§10) 132 Institute (CLSI) conditions. A volume of 125 µL from each cell suspension was dispensed into the\n(§11) 133 wells of 96-well flat-bottom microtiter plates (Corning). An additional 25 µL of 4456dh from a series\n(§12) 134 of dilutions from the 157 mM stock solution prepared in water was added to each well. Following […]\n(§13) 137 replicates. Growth, as determined by a reading of absorbance at 600 nm, was normalized to\n(§14) 138 untreated controls and was corrected for the absorbance of 4456dh in the YPD medium. […]\n(§15) 139 minimum inhibitory concentration causing 80% growth reduction, or MIC80, was determined based […]\n(§16) 157 Optical density (OD600) was determined with an Infinite PRO plate reader ( Tecan). […]"}, "[2]": {"system": "C. neoformans (H99)", "conditions": "Cryptococcus neoformans", "procedure": "as §1, §2, §3, §4, §5, §6, §7, §8, §9, §10, §11, §12, §13, §14, §15, §16"}, "[3]": {"system": "C. deneoformans (JEC21)", "conditions": "Cryptococcus deneoformans", "procedure": "as §1, with “TEXT PRINTED IN THE PICTURE: (A) 4456dh: C. albicans 42 °C: 13 mM; C. auris 39 °C: 7 mM | (B) 4456dh: C. glabrata 42 °C: 7.8 μM | (C) 4456dh: C. neoformans 37 °C: 7 mM; C. deneoformans 37 °C: 3 mM; C. gattii 37 °C: 7 mM DOUBTS OF THE COPYIST ABOUT THIS PICTURE: 4456dh, all panels: the picture prints no measure name with the white values on the heat maps, so each value is given only with its organism and temperature” left out\n124 technical replicates. Growth, as determined by a reading of absorbance at 600 nm, was\n125 normalized to untreated controls and was corrected for the absorbance of 4456dh in the YPD […]\nas §7\n130 absorbance of the medium. Antifungal potency for 4456dh was assessed by minimum inhibitory […]\nas §13, §14, §15, §16"}, "[4]": {"conditions": "Supplemental Table 5, This publication"}}, "note": "Where two headings read alike, the source gives them in different places."}
{"compound": "Cn1cc(-c2csc(NC(=O)Cc3ccccn3)n2)cn1", "note": "[Compound 4456dh]", "values": [{"measurement": "MIC80", "setting": "[1]; 37°C, YPD, 72 hours", "result": 7, "unit": "mM"}, {"measurement": "MIC80", "setting": "[1]; [4]", "result": 2780, "unit": "mg/L"}, {"measurement": "MIC80", "setting": "[2]; 37°C, YPD, 72 hours", "result": 7, "unit": "mM"}, {"measurement": "MIC80", "setting": "[2]; [4]", "result": 2780, "unit": "mg/L"}, {"measurement": "MIC80", "setting": "[3]", "result": "> 13", "unit": "mM"}, {"measurement": "MIC80", "setting": "[3]; 37°C, YPD, 72 hours, read-out: MIC80", "result": 3, "unit": "mM"}, {"measurement": "MIC80", "setting": "[3]; Supplemental Table 5, This publication, read-out: MIC80", "result": 1190, "unit": "mg/L"}]}
